In brackets after ≈: the same amount, converted by molar mass. Where a SMILES comes first, the peptide text is derived from it. The star is where a group is joined. Benzoyl(4-B(OH)2) = O=C(c1ccc(B(O)O)cc1)*
Tests used:
Format in all cases: functional
Candida albicans [1] = assay: Antifungal activity against Candida albicans measured on day 4 by broth microdilution method; conditions: 96 h
Escherichia coli = assay: Antimicrobial activity against Escherichia coli C ATCC 13706 measured on day 4 by broth microdilution method; conditions: C ATCC 13706, 96 h
Staphylococcus aureus = assay: Antimicrobial activity against Staphylococcus aureus ATCC 6538 measured on day 4 by broth microdilution method; conditions: ATCC 6538, 96 h
[2] = tested on: Mycolicibacterium smegmatis; assay: Antimicrobial activity against Mycobacterium smegmatis ATCC 607 measured on day 4 by broth microdilution method; conditions: ATCC 607, 96 h
Aspergillus niger = assay: Antifungal activity against Aspergillus niger measured on day 4 by broth microdilution method; conditions: 96 h
Candida albicans [3] = assay: Antibiofilm activity against Candida albicans VT1406 after 24 hrs by XXT/PMS dye based assay; conditions: VT1406, 24 h
Candida albicans [4] = assay: Antifungal activity against Candida albicans VT1406 in cell suspension after 24 hrs by XXT/PMS dye based assay; conditions: VT1406, 24 h

Row | SMILES | MIC (Candida albicans [1]) [µg/mL] | MIC (Escherichia coli) [µg/mL] | MIC (Staphylococcus aureus) [µg/mL] | MIC [2] [µg/mL] | MIC (Aspergillus niger) [µg/mL] | MIC (Candida albicans [3]) [µg/mL] | MIC (Candida albicans [4]) [µg/mL]
1 | CC(C)C[C@H](NC(=O)[C@H](CCCCN)NC(=O)[C@H](CCCCN)NC(=O)[C@H](CCCCN)NC(=O)[C@H](CCCCN)NC(=O)[C@H](CCCCN)NC(=O)[C@@H](N)CCCCN)C(=O)N[C@@H](CCCCNC(=O)c1ccc(B(O)O)cc1)C(=O)N[C@@H](CCCCNC(=O)c1ccc(B(O)O)cc1)C(=O)N[C@@H](Cc1ccc(O)cc1)C(=O)O (H-KKKKKKLK(Benzoyl(4-B(OH)2))K(Benzoyl(4-B(OH)2))Y-OH) | 4 (≈ 2.48 µM) | 8 (≈ 4.95 µM) | 32 (≈ 19.8 µM) | 32 (≈ 19.8 µM) | 62.5 (≈ 38.7 µM) | – | –
2 | CC(C)C[C@H](NC(=O)[C@H](CCCCNC(=O)c1ccc(B(O)O)cc1)NC(=O)[C@H](CC(C)C)NC(=O)[C@H](CCCCN)NC(=O)[C@H](CCCCN)NC(=O)[C@H](CCCCN)NC(=O)[C@H](CCCCN)NC(=O)[C@H](CCCCN)NC(=O)[C@@H](N)CCCCN)C(=O)N[C@@H](Cc1ccc(O)cc1)C(=O)O (H-KKKKKKLK(Benzoyl(4-B(OH)2))LY-OH) | 4 (≈ 2.75 µM) | 16 (≈ 11 µM) | 32 (≈ 22 µM) | 32 (≈ 22 µM) | 62.5 (≈ 43 µM) | – | –
3 | CC(C)C[C@H](NC(=O)[C@H](CCCCN)NC(=O)[C@H](CCCCN)NC(=O)[C@H](CC(C)C)NC(=O)[C@H](CCCCN)NC(=O)[C@@H](N)CCCCN)C(=O)N[C@@H](CCCCN)C(=O)N[C@@H](CCCCNC(=O)c1ccc(B(O)O)cc1)C(=O)N[C@@H](CCCCNC(=O)c1ccc(B(O)O)cc1)C(=O)N[C@@H](Cc1ccc(O)cc1)C(=O)O (H-KKLKKLKK(Benzoyl(4-B(OH)2))K(Benzoyl(4-B(OH)2))Y-OH) | 8 (≈ 5 µM) | 16 (≈ 10 µM) | 62.5 (≈ 39 µM) | 62.5 (≈ 39 µM) | 125 (≈ 78.1 µM) | – | –
4 | CC(C)C[C@H](NC(=O)[C@H](CC(C)C)NC(=O)[C@H](CCCCN)NC(=O)[C@H](CCCCN)NC(=O)[C@H](CC(C)C)NC(=O)[C@H](CCCCN)NC(=O)[C@@H](N)CCCCN)C(=O)N[C@@H](CCCCN)C(=O)N[C@@H](CCCCNC(=O)c1ccc(B(O)O)cc1)C(=O)N[C@@H](Cc1ccc(O)cc1)C(=O)O (H-KKLKKLLKK(Benzoyl(4-B(OH)2))Y-OH) | 4 (≈ 2.78 µM) | 16 (≈ 11.1 µM) | 62.5 (≈ 43.5 µM) | 32 (≈ 22.3 µM) | 125 (≈ 86.9 µM) | – | –
5 | CC(C)C[C@H](NC(=O)[C@H](CCCCN)NC(=O)[C@H](CCCCN)NC(=O)[C@H](CC(C)C)NC(=O)[C@@H](N)CCCCN)C(=O)N[C@@H](CCCCN)C(=O)N[C@@H](CCCCN)C(=O)N[C@@H](CCCCN)C(=O)N[C@@H](CCCCNC(=O)c1ccc(B(O)O)cc1)C(=O)N[C@@H](Cc1ccc(O)cc1)C(=O)O (H-KLKKLKKKK(Benzoyl(4-B(OH)2))Y-OH) | 2 (≈ 1.38 µM) | 16 (≈ 11 µM) | 32 (≈ 22 µM) | 32 (≈ 22 µM) | 125 (≈ 86 µM) | – | –
6 | CC(C)C[C@H](NC(=O)[C@H](CCCCN)NC(=O)[C@H](CC(C)C)NC(=O)[C@H](CCCCN)NC(=O)[C@H](CCCCN)NC(=O)[C@H](CC(C)C)NC(=O)[C@@H](N)CCCCN)C(=O)N[C@@H](CCCCN)C(=O)N[C@@H](CCCCNC(=O)c1ccc(B(O)O)cc1)C(=O)N[C@@H](Cc1ccc(O)cc1)C(=O)O (H-KLKKLKLKK(Benzoyl(4-B(OH)2))Y-OH) | 4 (≈ 2.78 µM) | 16 (≈ 11.1 µM) | 62.5 (≈ 43.5 µM) | 32 (≈ 22.3 µM) | 125 (≈ 86.9 µM) | – | –
7 | CC(C)C[C@H](NC(=O)[C@H](CC(C)C)NC(=O)[C@H](CCCCN)NC(=O)[C@H](CC(C)C)NC(=O)[C@@H](N)CC(C)C)C(=O)N[C@@H](CCCCN)C(=O)N[C@@H](CCCCN)C(=O)N[C@@H](CCCCNC(=O)c1ccc(B(O)O)cc1)C(=O)N[C@@H](CCCCN)C(=O)N[C@@H](Cc1ccc(O)cc1)C(=O)O (H-LLKLLKKK(Benzoyl(4-B(OH)2))KY-OH) | 8 (≈ 5.62 µM) | 16 (≈ 11.2 µM) | 62.5 (≈ 43.9 µM) | 125 (≈ 87.9 µM) | 250 (≈ 176 µM) | – | –
8 | C[C@@H]1[C@H](O)[C@@H](C)/C=C/C=C/C=C/C=C/C=C/C=C/C=C/[C@H](O[C@@H]2O[C@H](C)[C@@H](O)[C@H](N)[C@@H]2O)C[C@@H]2O[C@](O)(C[C@@H](O)C[C@@H](O)[C@H](O)CC[C@@H](O)C[C@@H](O)CC(=O)O[C@H]1C)C[C@H](O)[C@H]2C(=O)O [AMPHOTERICIN B] | – | – | – | – | – | 0.25 (≈ 0.271 µM) | 0.25 (≈ 0.271 µM)
9 | Clc1ccc(COC(Cn2ccnc2)c2ccc(Cl)cc2Cl)c(Cl)c1 (centres undefined) [MICONAZOLE] | – | – | – | – | – | 4 (≈ 9.61 µM) | 1 (≈ 2.4 µM)
